# Columns and labels:
# [1] = MTT assays; salicylic acid alone
# [2] = tested on: pancreatic adenocarcinoma; experiment: Case Study 16; assay type: in vivo, human
# Procedure: A person presented symptoms of abdominal pain, nausea, and vomiting. […] They also had multiple metastases on their liver. They were diagnosed with pancreatic adenocarcinoma. Their CA 19-9 (levels of tumor-associated antigens in the blood) was 365 U/mL. The patient was treated through infusion with 200 mg of zinc Iodide mixing with 1000 mL of 0.9% sodium chloride solution and 10 mL of DMSO. The symptoms presented improved after 2 days of treatment. […] After 35 days on the treatment, an ultrasound was taken of the pancreas. The tumor had decreased to 4.3 cm×5.2 cm. Their CA 19-9 levels decreased to 168 U/mL. After 40 treatments, the patient began treatment orally; they were given 50 mg zinc iodide capsules 3 times/day. After 155 days on the oral treatment, a CT of their pancreas was taken. The tumor decreased to 2.4 cm×3.6 cm. The liver metastasis decreased by 50% also.
# lung cancer = experiment: Case Study 14; assay type: in vivo, human
# Procedure: A person presented with cough and chest pains that persisted over 6 months. In that time, they also lost 6 kg of weight. In the last 20 days, the patient developed hemoptysis, which lead them to hospitalization. […] They also had total opacification of the right lung. The patient was diagnosed with lung cancer and sent home. The patient was treated with 3-50 mg Zinc Iodide capsules/day for 120 days. After 5 days, their breathing capabilities and cough improved.
# cholangiocarcinoma = experiment: Case Study 9; assay type: in vivo, human; parameters: total bilirubin: unit not given here
# Excerpt: A person presented with jaundice, abdominal discomfort and lack of appetite. They could not eat or drink properly. Over the last 3 months, their weight decreased by 8 kg. […] There was also a hypodense lesion with an intraductal growth type, sized at 3.6 cm×4.1 cm, on their liver. […] They were diagnosed with cholangiocarcinoma.
# [3] = tested on: adenocarcinoma of the pancreatic head; experiment: Case Study 6; assay type: in vivo, human; parameters: total bilirubin: unit not given here
# Procedure: A person had symptoms of weight loss and abdominal pain over a 2-month period. […] At the head, there was a 38-mm×42 mm mass detected. In addition, their intrahepatic billiard tree was dilated. The patient was given 125 mg of Zinc Iodide mixing with 1000 ml of sodium chloride 0.9% and 10 ml of DMSO through infusion daily for 20 days. […] They gained 4 kg of body weight. […] The patient is symptom free.
# [4] = tested on: prostate cancer with diffuse metastases; experiment: Case Study 7; assay type: in vivo, human
# Procedure: A patient had prostate cancer with diffuse metastases, along with severe leg pain. They underwent hormonal therapy, until they developed severe bone pain. They took voltaren injections and solumedrol infusions to alleviate the pain. […] The patient was weak and lost 5 kg of weight in a month. They began the treatment with 125 mg of Zinc Iodide mixing with 1000 ml of sodium chloride 0.9% and 10 ml of DMSO through infusion. […] Their RBC, hemoglobin and serum calcium levels all normalized; and their PSA decrease dramatically to 40 ng/mL. Their quality of life improved greatly, and they had no symptoms.
# [5] = tested on: stage IV breast cancer metastasized to lungs and brain; experiment: Case Study 3; assay type: in vivo, human
# Procedure: A patient was diagnosed with stage IV breast cancer and invasive ductal carcinoma metastasized to multiple organs (lungs and brain). […] They then took 3 dosages of 50 mg of zinc iodide per day orally. A chest ray was taken 61 days after the start of treatment, as shown the lung metastases decreased by more than 60%.
# Case Study 15 = assay type: in vivo, human
# Procedure: Due to this, they were hospitalized 4-5 times/year. For 3 years, they used a corticosteroid inhaler, bronchodilator, antibiotics and COPD medication to no avail. They were also taking hypertension medication as a result of the COPD treatment. Their blood pressure was 160/96 and Forced Expiratory Volume (FEV1) at 58%. The patient was treated with 3-50 mg Zn Iodide capsules/day. […] […] (FEV1) was 67% and their blood pressure decreased to 130/90. […] Even though they were not taking COPD medication, there were no signs of infections either.
# liver cancer = experiment: Case Study 17; assay type: in vivo, human
# Procedure: A person with chronic hepatitis C presented symptoms of abdominal pain. […] They had also been diagnosed with type 2 diabetes three years prior. […] Within 5 days their abdominal pain disappeared, and […] general health improved. […] Their cancer related markers included: AFP: 678 IU/L, GOP: 146 IU/L, GPT: 126 IU/L, and GGT: 124 IU/L. The patient's blood glucose level was 6.7 mmol/L. For the next 90 days, the patient took 50 mg of zinc iodide orally in capsule form 3 times/day. […] Their cancer related markers included: AFP: 107 IU/L, GOP: 195 IU/L, GPT: 69 IU/L, and GGT: 115 IU/L. The patient's blood glucose level was 7.4 mmol/L.
# [6] = tested on: esophageal cancer with multiple lymphatic metastases; experiment: Case Study 10; assay type: in vivo, human
# Procedure: A person was diagnosed with esophageal cancer with multiple lymphatic metastases. Their blood chemistry profile was normal, but their CEA levels were 6.7 ng/mL. The patient presented symptoms of extreme fatigue, difficult swallowing, chest pains, fever and weight loss. An endoscopy reveled a 4.2 cm×3.7 cm lesion on their esophagus. The tumor had poorly differentiated adenocarcinoma. […] The patient underwent treatments of 200 mg of zinc iodide mixing with 1000 mL of 0.9% sodium chloride solution and in 10 mL of DMSO, 6 times/week for 4 weeks. […] They also stopped steroid treatment. […] After 24 days of the infusion treatment, they began taking 50 mg Zinc Iodide capsules, 3 times/day for 90 days.
# [7] = 105 days after the beginning of treatment
# [8] = 61 days after the start of treatment
# [9] = after further 90 days of oral treatment
compound,measurement,setting,value
O=C(O)c1ccccc1O [salicylic acid],cellular activity,[1],no effect on cellular activity
"[I][Zn][I] [Zinc Iodide, zinc iodide]",symptoms,[2]; after 2 days of treatment,improved
same,CA 19-9 levels,"[2]; after 35 days, before treatment 365",168 U/mL
same,decrease of liver metastasis,[2]; after 155 days on the oral treatment,50%
same,symptoms,[2]; by the 5th day,almost symptom-free
same,breathing capabilities and cough,lung cancer; after 5 days,improved
same,clearance of opacification (CT),lung cancer; after 121 days,80%
same,blood in sputum,lung cancer; by 12 days,no longer had blood in their sputum
same,GGT levels,cholangiocarcinoma; 105 days,784 U/L
same,GOT levels,cholangiocarcinoma; 105 days,67 U/L
same,GPT levels,cholangiocarcinoma; 105 days,54 U/L
same,total bilirubin,cholangiocarcinoma; 105 days,28
same,symptoms,cholangiocarcinoma; [7],no longer experienced symptoms
same,weight gained,cholangiocarcinoma; [7],4 kg
same,GPT,"cholangiocarcinoma; after 10 days, before treatment 127",97 U/L
same,total bilirubin,"cholangiocarcinoma; after 10 days, before treatment 139",75
same,GOT,"cholangiocarcinoma; after 10 days, before treatment 163",121 U/L
same,GGT,"cholangiocarcinoma; after 10 days, before treatment 1410",1267 U/L
same,GGT,cholangiocarcinoma; at 21 days,978 U/L
same,GOT,cholangiocarcinoma; at 21 days,85 U/L
same,GPT,cholangiocarcinoma; at 21 days,193 U/L
same,jaundice,cholangiocarcinoma; at 21 days,improved
same,total bilirubin,cholangiocarcinoma; at 21 days,56
same,digestive health,cholangiocarcinoma; within 5 days,improved significantly
same,CA 19-9 level,[3]; 63rd day,46 U/mL
same,liver metastases,[3]; 63rd day,no indications of liver metastases
same,symptoms,[3]; after treatment,symptom free
same,total bilirubin,"[3]; at 10 days, before treatment 78",56
same,AST,"[3]; at 10 days, before treatment 113",73 U/L
same,GGT,"[3]; at 10 days, before treatment 149",149 U/L
same,ALT,"[3]; at 10 days, before treatment 187",73 U/L
same,CA 19-9,"[3]; at 10 days, before treatment 385",184 U/L
same,body weight gained,[3]; during oral treatment,4 kg
same,pain,[3]; within 7 days,completely disappeared
same,"RBC, hemoglobin and serum calcium levels",[4]; after oral treatment,normalized
same,symptoms,[4]; after oral treatment,no symptoms
same,ultrasound and x-ray scans,[4]; after oral treatment,no abnormalities
same,PSA,"[4]; after oral treatment, before treatment 260",40 ng/mL
same,pain medication,[4]; by day 20,stopped all pain medication
same,RBC count,"[4]; day 20, before treatment 3.2",4.2 million cells/uL
same,serum calcium levels,"[4]; day 20, before treatment 3.5",2.5 mmol/L
same,hemoglobin,"[4]; day 20, before treatment 9",10.7 g/dL
same,pain improvement,[4]; within 7 days,70%
same,decrease of lung metastases,[5]; [8],more than 60%
same,reduction of brain metastases (MRI),[5]; [8],50%
same,"symptoms of coughing, headache and nausea",[5]; over 12 days of infusion,gradually improved
same,Forced Expiratory Volume (FEV1),Case Study 15; 92 days after first treatment,75%
same,blood pressure,Case Study 15; 92 days after first treatment,125/90
same,shortness of breath,Case Study 15; 92 days after first treatment,no longer had shortness of breath
same,need for fast acting bronchodilator inhalers,Case Study 15; after 3 days,no longer needed fast acting bronchodilator inhalers
same,COPD related symptoms,Case Study 15; at 30 days,remarkable improvement
same,Forced Expiratory Volume (FEV1),"Case Study 15; at 30 days, before treatment 58%",67%
same,blood pressure,"Case Study 15; at 30 days, before treatment 160/96",130/90
same,COPD related episodes,Case Study 15; in the following 2 months,did not have any COPD related episodes
same,need for corticosteroid inhalers,Case Study 15; within 10 days,no longer needed corticosteroid inhalers
same,GOT,"liver cancer; after 10 days, GOT before treatment 326",224 IU/L
same,blood glucose level,"liver cancer; after 10 days, before treatment 8.5",7.6 mmol/L
same,GGT,"liver cancer; after 10 days, before treatment 251",93 IU/L
same,GPT,"liver cancer; after 10 days, before treatment 293",187 IU/L
same,AFP,"liver cancer; after 10 days, before treatment 1450",1209 IU/L
same,AFP,liver cancer; after 21 days,678 IU/L
same,GGT,liver cancer; after 21 days,124 IU/L
same,GOT,liver cancer; after 21 days,146 IU/L
same,GPT,liver cancer; after 21 days,126 IU/L
same,blood glucose level,liver cancer; after 21 days,6.7 mmol/L
same,AFP,liver cancer; [9],107 IU/L
same,GGT,liver cancer; [9],115 IU/L
same,GOT,liver cancer; [9],195 IU/L
same,GPT,liver cancer; [9],69 IU/L
same,blood glucose level,liver cancer; [9],7.4 mmol/L
same,abdominal pain,liver cancer; within 5 days,disappeared
same,lymph nodes,[6]; 105th day,clear of metastases
same,fever and pain,[6]; after 3 days,no symptoms of fever or pain
same,general health,[6]; after 3 days,improved
same,eating and drinking,[6]; within 3 weeks,could eat and drink normally

# Source: patent publication US20180353539A1, “METAL COMPLEXES AS PHARMACEUTICALS FOR TREATMENT AND PREVENTION OF CANCER AND INFLAMMATORY DISEASES” (UNIVERSITY OF SOUTHERN CALIFORNIA, priority 2017, published 2018)
